The source of these data is patent US8962527B2, “Process for preparation of herbicidal salts” (Nufarm Australia Limited, priority 2010, dated 2015).

Series [1] can be described thus: pH of 3% solution of the finished product in H2O. It is filed as physicochemical. Particulars: 3% solution in H2O. The protocol:
The reaction was monitored by addition of small amounts of reaction mixture to water. When the mixture provides a pH of 8 and remains at this pH the reaction was considered complete. The product was filtered and dried at temperature not greater than 60° C. The mother liquor is made up with fresh MTBE, ready for the next batch.

Series [2] in a line: Hygroscopicity of the finished product. Particulars: dried solid product. It is filed as physicochemical.

As for `CNC.Cc1cc(Cl)ccc1OCC(=O)O` [Example 1, MCPA/DMA Salt], the pH in series [1] is recorded as 5.5-6.5. The “hygroscopicity of product” value in series [2] is reported as “extremely hydroscopic”.
For the compound `CNC.COc1c(Cl)ccc(Cl)c1C(=O)O` [Example 2, Dicamba/DMA Salt], the pH in series [1] is recorded as 5.5-6.5. Also, the “hygroscopicity of product” value in series [2] is listed as “extremely hydroscopic”.
The corresponding values for `CNC.Cc1cc(Cl)ccc1OC(C)C(=O)O` (centres unmarked) [Example 3, MCPP/DMA Salt] are 5.8-6.3 and “extremely hydroscopic”.
Take `CC(Oc1ccc(Cl)cc1Cl)C(=O)O.CNC` (centres unmarked) [Example 4, 2,4-DP/DMA Salt]: in series [1], the pH is 5.8-6.5. Also, the “hygroscopicity of product” value in series [2] is on record as “not hydroscopic”.
